Patent publication US9789191B2, “Aqueous drug delivery system” (SOLIXA TECHNOLOGIES, INC., priority 2010, dated 2017)

Test: Comparative accelerated storage study of ASA at 45° C. for 3 weeks (HPLC)
Format: physicochemical
Conditions: in distilled water, 143 mg ASA in 8 oz
Method: Accelerated storage studies were conducted to examine the stability of ASA in distilled water, ASA in acidified (1% citric acid) distilled water, and of a molecular inclusion complex of ASA-βCD (in distilled water). Duplicate samples of each treatment were made containing 143 mg of ASA in 8 oz of distilled water. For the treatment containing the ASA-βCD complex, a 2:1 ratio of βCD to ASA was used as described in part I of the prototype formulation procedure outlined above. The treatments were stored at 45° C. for 3 weeks to determine the rate of hydrolysis of ASA to its breakdown product salicylic acid. Analysis of degradation products was performed using an Agilent Technologies 1200 series HPLC with a PDA (photodiode array) detector, incorporating a Phenominex C18-2 column (25 cm×0.39 cm i.d., 5 μm particle size). Solvent system A) H2O, Acetonitrile, Phosphoric Acid (95.45:4.5:0.05), and B) H2O, Acetonitrile, Phosphoric Acid (49.95:50:0.05). Solvent B ramped from 10%-80% over 20 minutes. Stability was verified using peak area, which was used to determine the overall percentage of breakdown of ASA to salicylic acid. […] The sensory profile of the βCD-ASA solution was evaluated.

SMILES: CC(=O)Oc1ccccc1C(=O)O [ASA, acetylsalicylic acid]
- breakdown of ASA to salicylic acid: nearly quantitative breakdown
